Measurements as given in ChEMBL document CHEMBL1150755, “2,4,5-trimethoxystyrene, a bioactive component of the bark of Duguetia panamensis” (J Nat Prod, 1988).
≈ marks a conversion by molar mass, not a printed value.

Key:
[1] = Cytotoxicity against mouse 9PS cells; format: functional; settings: read-out: ED50 (the source's name)
[2] = Cytotoxicity against human 9KB cells; format: functional; settings: read-out: ED50 (the source's name)
Artemia = assay: Toxicity in brine shrimp; format: organism-based; settings: in vivo

C=Cc1cc(OC)c(OC)cc1OC
EC50 [1]: 27 µg/mL (≈ 139 µM) | EC50 [2]: 42 µg/mL (≈ 216 µM) | LC50 (Artemia): 8 ppm
